From US20010046498A1, “Chimeric prostate-homing peptides with pro-apoptotic activity” (priority 2000, published 2001)
Like-named read-outs stand apart in the source and are kept apart here. Bridge positions count the residues as written; N and C are the ends. Square brackets hold non-standard residues; d marks the D form. Peptide text beside a SMILES is read from it.

Columns and labels:
[1] = test system: tumor; test: Competition of GSL phage homing by free peptide; set-up: species or system mice; details: mouse, in vivo
Text: A third motif, GSL (glycine-serine-leucine), also was identified following in vivo panning in mice bearing breast carcinoma, malignant melanoma or Kaposi's sarcoma. Homing of phage expressing the GSL peptide, CGSLVRC (SEQ ID NO: 5), was inhibited by coadministration of the free CGSLVRC (SEQ ID NO: 5) peptide. Like the RGD and NGR peptides, phage expressing GSL peptides also bound to blood vessels of tumors. In view of the identification of the conserved RGD, NGR and GSL motifs present in tumor homing peptides, as disclosed herein, it will be recognized that peptides containing such motifs can be useful as tumor homing peptides and, in particular, for forming homing pro-apoptotic conjugates that can selectively deliver an […] peptide to a tumor.

[2] = in vitro; assay type: cell-based; details: human; monolayer at 100% confluency; scored at 72 hours; means of three independent experiments; read-out: LC50 DMEC Angiostatic
Description: (§1) The effect of HPP-1 was assayed on normal human dermal microvessel endothelial cells (DMECs) under the angiogenic conditions of proliferation and cord formation. In addition, the effect of HPP-1 was assayed under the angiostatic condition of a monolayer maintained at 100% confluency (as described below).
(§2) Briefly, dermal microvessel endothelial cells (DMECs) were grown in CADMEC Growth Media™ (Cell Applications, Inc.; San Diego, Calif.). Dermal microvessel endothelial cells were then cultured under three experimental conditions: proliferation, 30% confluency in a growth media supplemented with 500 ng/ml human recombinant vascular endothelial growth factor (VEGF; Pharmingen); no proliferation, 100% confluency in media formulated to maintain a monolayer; and cord formation, 60% confluency (required for induction) in media formulated to induce cord formation. The KS1767 and MDA-MB-435 cells were cultured as described in Arap et al., supra, 1998; Hernier et al., supra, 1994).
(§3) Percent viability and LC50 (Table 1) were determined by apoptotic morphology as described in Ellerby et al., J. Neurosci. 17:6165-6178 (1997). For the percent viability assays, dermal microvessel endothelial cells were treated with 60 μM HPP-1 or control peptide D(KLAKLAK)2. At the indicated time points, cell culture medium was aspirated from adherent cells, and the cells were gently washed once with PBS at 37° C. Subsequently, a 20-fold dilution of the dye mixture (100 μg/ml acridine orange and 100 μg/ml ethidium bromide) in PBS was gently pipetted on the cells, which were viewed on an inverted microscope (Nikon TE 300). […] At least 500 cells were scored for a given time point in each experiment. Percent viability was calculated relative to untreated controls. The LC50 for monolayer, proliferation ([…]), and cord formation were scored at 72 hours.

[3] = test system: normal human dermal microvessel endothelial cells (DMECs); test: in vitro; assay type: cell-based; details: for CC50: scored at 72 hours
Description: as §1, §2, §3

[4] = test system: KS1767 cells; test: LC50 for KS1767 cells scored by apoptotic morphology; assay type: cell-based; details: proliferating KS1767 cells; read-out: LC50 KS1767 Prolif.
Description: as §2
as §3, with “C.” for “C. Subsequently, a 20-fold dilution of the dye mixture (100 μg/ml acridine orange and 100 μg/ml ethidium bromide) in PBS was gently pipetted on the cells, which were viewed on an inverted microscope (Nikon TE 300).”

[5] = test system: MDA-MB-435 human breast carcinoma cells; test: LC50 for MDA-MB-435 cells scored by apoptotic morphology; assay type: cell-based
Description: as §2
as §3, with “C.” for “C. Subsequently, a 20-fold dilution of the dye mixture (100 μg/ml acridine orange and 100 μg/ml ethidium bromide) in PBS was gently pipetted on the cells, which were viewed on an inverted microscope (Nikon TE 300).”

[6] = test system: dermal microvessel endothelial cells; test: Mitochondrial morphology of proliferating DMECs (MitoTracker Red / DAPI); assay type: cell-based, human; details: 60 μM peptide
Description: Mitochondrial morphology of dermal microvessel endothelial cells was assessed in proliferating cells after treatment with 60 μM HPP-1, […]-GG-D(KLAKLAK)2 or untargeted D(KLAKLAK)2 as follows. Dermal microvessel endothelial cells were stained after 24 and 72 hours treatment with peptide by incubation for 30 min at 37° C. with 100 nM mitochondrial stain MitoTracker Red™ (Molecular Probes, Inc., Eugene Oreg.) and 500 nM of the nuclear stain DAPI (Molecular Probes, Inc.). Mitochondria were subsequently visualized using fluorescence microscopy (100×) under an inverted microscope using a triple wavelength filter set (Nikon).

[7] = test system: caspase activation in dermal microvessel endothelial cells; test: Caspase activity (DEVD-pNA hydrolysis) in DMEC lysates; assay type: cell-based, human; details: proliferating DMECs
Description: Characteristic caspase-3 processing was measured in dermal microvessel endothelial cell lysates as described in Ellerby et al., supra, 1997. Briefly, aliquots of cell lysates (1 μl lysate, 8-15 mg/ml) were added to 100 μM N-acetyl-Asp-Glu-Val-Asp-pNA (DEVD-pNA; BioMol; 100 μl, 100 mM HEPES, 10% sucrose, 0.1% CHAPS, 1 mM DTT, pH 7.0). Hydrolysis of DEVD-PNA was monitored spectrophotometrically (400 nm) at 25° C.

[8] = test system: human MDA-MD-435 breast carcinoma xenografts; test: Treatment of nude mice bearing breast carcinoma xenografts; assay type: in vivo
Description: (§4) The activity of HPP-1 was tested in vivo using nude mice bearing human MDA-MD-435 breast carcinoma xenografts as follows. Briefly, MDA-MB-435 and C8161-derived tumor xenografts were established in 2 month-old female nude mice (Jackson Labs; Bar Harbor, Me.) as described in Arap et al., supra, 1998. After mice were anesthetized with a mixture of 2,2,2-tribromoethanol (Aldrich; Milwaukee, Wis.) and 2-methyl-butanol (Aldrich) prepared in distilled water, peptides were administered intravenously through the tail vein at a dose of 250 μg/week/mouse given slowly in a volume of 200 μl. Three-dimensional measurements of tumors were taken by caliper under anesthesia and used to calculate tumor volume (Pasqualini et al., supra, 1996).

[9] = test system: tumors derived from the human melanoma cell line C8161; test: Treatment of nude mice bearing C8161 melanoma xenografts; assay type: in vivo; details: similar experiments
Description: as §4

[10] = test system: normal human dermal microvessel endothelial cells (DMECs); assay type: cell-based; set-up: dose or concentration left out as unconfirmed; details: proliferation or cord formation
[11] = 250 μg/week/mouse intravenously

Compound	effect of coadministered free peptide on homing of CGSLVRC phage [1]	CC50 at 72 h [2]	LC50 for proliferating or migrating DMECs relative to LC50 for angiostatic DMECs ([3]; angiogenic versus angiostatic conditions)	CC50 ([3]; cord formation, read-out: LC50 DMEC Angiogenic Cord Form)	CC50 ([3]; proliferation with VEGF, read-out: LC50 DMEC Angiogenic Prolif.)	CC50 [4]	toxicity to MDA-MB-435 cells relative to KS1767 cells and angiogenic DMECs [5]	CC50 ([5]; proliferating MDA-MB-435 cells, read-out: LC50 MDA-MB-435 Prolif.)	morphological indicators of apoptosis (nuclear condensation and fragmentation) ([6]; 72 hours)	cells with altered mitochondrial morphology ([6]; proliferating cells, before the cells rounded-up)	apoptotic cell death by caspase activity [7]	histopathological analysis of tumors [8, 11]	survival versus control groups [8, 11]	tumor volume versus controls [8, 11]	apoptotic cell death in tumors ([8]; histopathological analysis)	effect against C8161 melanoma tumors [9]	percent viability with time relative to untreated controls [10]
CGSLVRC [GSL tumor homing peptide]	inhibited																
CC(C)C[C@@H](NC(=O)[C@@H](CCCCN)NC(=O)CNC(=O)CNC(=O)[C@@H]1CSSC[C@H](N)C(=O)N[C@@H](CC(N)=O)C(=O)NCC(=O)N[C@@H](CCCNC(=N)N)C(=O)N1)C(=O)N[C@H](C)C(=O)N[C@H](CCCCN)C(=O)N[C@H](CC(C)C)C(=O)N[C@H](C)C(=O)N[C@H](CCCCN)C(=O)N[C@H](CCCCN)C(=O)N[C@H](CC(C)C)C(=O)N[C@H](C)C(=O)N[C@H](CCCCN)C(=O)N[C@H](CC(C)C)C(=O)N[C@H](C)C(=O)N[C@H](CCCCN)C(=O)O [HPP-1, CNGRC-GG-D(KLAKLAK)2] (H-CNGRCGG[dK][dL][dA][dK][dL][dA][dK][dK][dL][dA][dK][dL][dA][dK]-OH; disulfide 1-5)		481 µM	an order of magnitude lower	34 µM	51 µM	42 µM	less toxic to MDA-MB-435 human breast carcinoma cells by approximately one order of magnitude	415 µM	exhibited the classic morphological indicators of apoptosis	approximately 80%	Apoptotic cell death was confirmed	pronounced destruction of tumor architecture and widespread cell death	survival was longer	smaller, on average by one order of magnitude	about 50%	effective	decrease in percent viability with time
